{"source": "patent US11857601B2", "about": "“Pharmaceutical composition for cancer treatment comprising fusion protein including IL-2 protein and CD80 protein and anticancer drug” (GI INNOVATION, INC., priority 2020, dated 2024)", "key": {"[1]": {"tested_on": "HCT116 cells", "experiment": "Cancer cell killing, GI-101 and Pertuzumab, HCT116 with NK cells", "assay_type": "cell-based, human", "details": "GI-101 0.4-100 nM, Pertuzumab 16.9 nM, 24 hours", "source_text": "This experiment was to evaluate the effect of killing cancer cells by treating HCT116 cells (human colon cancer cells) with the test substance GI-101 alone or in combination with Pertuzumab substance in an in vitro environment.\n(§1) HCT116 cells were purchased from the Korea cell line bank and cultured in McCoy's 5A medium (ATCC) containing 10% FBS (Gibco) and 1% antibiotic/antifungal agent (Gibco). For use in cancer cell killing test, the cells were harvested using trypsin (Gibco), and then suspended in McCoy's 5A medium, and then dead cells and debris were removed using Ficoll (GE Healthcare Life Sciences) solution. The cells suspended in McCoy's 5A medium were carefully layered on ficoll solution. […]\n(§2) In order to identify the effect of killing the cells, a CytoTox Green reagent ([…]™ CytoTox Green, Satorius) that binds to the DNA of cells to be killed was prepared in 1 μl per 1 mL of RPMI1640 medium containing 5% human AB serum (Sigma). The prepared medium was used for dilution of the test substance, and the effect of killing the cells could be quantitatively identified by staining the cells to be killed when the test substance was co-cultured with cancer cell lines and PBMCs. […]"}, "[2]": {"tested_on": "4T1 cells", "experiment": "mGI-101 and Abemaciclib in 4T1 allotransplanted tumor model", "assay_type": "in vivo, BALB/c mice", "details": "11 mice per group", "procedure": "4T1 cells were purchased from ATCC (USA) and cultured in RPMI1640 medium (Gibco) containing 10% FBS (Gibco) and 1% antibiotic/antifungal agent (Gibco). The cultured cells were harvested using trypsin (Gibco) and then suspended in PBS. In order to establish an allotransplanted tumor model, 1×10^5 of 4T1 cells were subcutaneously injected into the back of BALB/c female mice (8-week-old).\nA certain period of time after cell inoculation of the tumor grafts of the mice, the tumor volume was measured for animals with no abnormalities in the health condition of the animals, and the mice were randomly selected and assigned, each group including 11 mice.\nThe death of the mouse, the type of general symptoms, the date of onset, and the severity of symptoms were observed once a day during the test period, and recorded for each subject.\nThe tumor volume before administration of each subject was set as the value measured at the time of grouping, and the anti-tumor efficacy was evaluated as compared with the vehicle control.\nAll statistical calculations were performed using Prism 8.0 (Graph Pad Software Inc, USA). The comparison of tumor volume measurements was made through two-way analysis of variance followed by Tukey's multiple comparison test. A p value of less than 0.05 was considered significant."}, "[3]": {"tested_on": "MC38 cells", "experiment": "mGI-101 and DMXAA in MC38 allotransplanted tumor model", "assay_type": "in vivo, C57BL/6 mice", "details": "day 60 after tumor injection; mGI-101 6 mg/kg i.p. BIW, DMXAA 450 μg I.T.; 5 mice per group", "procedure": "In order to establish an allotransplanted tumor model, 5×10^5 of MC38 cells were subcutaneously injected into C57BL/6 mice. The tumor grafts of the mice were identified to be a size of 100-200 mm^3 about day 10 after cell inoculation, and the mice were assigned, each group including 5 mice.\nThe size of the MC38 solid cancer was measured three times a week during the observation period, and the major axis (maximum length, L) and minor axis (perpendicular width, W) of the tumor were measured using a caliper, and the tumor volume (TV) was calculated by substituting them into the following equation, and once the tumor size was no less than 2 cm, the mice were sacrificed. TV (mm^3)=(W^2×L)/2 [Equation 1]"}, "[4]": {"tested_on": "MDA-MB-231 cells", "experiment": "Cancer cell killing, GI-101 and Ribociclib, MDA-MB-231 with PBMCs", "assay_type": "cell-based, human", "details": "GI-101 100 nM, Ribociclib 913 nM, 24 hours, compared with co-culturing only cancer cells and PBMCs", "source_text": "This experiment was to evaluate the effect of killing cancer cells by treating MDA-MB-231 cells (human breast cancer cells) with the test substance GI-101 alone or in combination with Ribociclib substance in an in vitro environment.\nas §1, with “MDA-MB-231” for “HCT116”, “RPMI1640” for “McCoy's 5A”, “(Gibco)” for “(ATCC)”\nas §2"}, "[5]": {"tested_on": "4T1 cells", "experiment": "mGI-101, anti-PD-L1 antibody and Docetaxel in 4T1 allotransplanted tumor model", "assay_type": "in vivo, BALB/c mice", "source_text": "This experiment was to evaluate the anticancer efficacy according to administration of the test substance mGI-101 alone or in combination with Docetaxel (Selleck Chemicals, cat. no. S1148) and the anti-PD-L1 antibody (BioXcell, cat. no. BE0101) in a tumor model allotransplanted with 4T1 cells (mouse breast cancer cells) into BALB/c mice.\n4T1 cells were purchased from ATCC (USA) and cultured in RPMI1640 medium (Gibco) containing 10% FBS (Gibco) and 1% antibiotic/antifungal agent (Gibco). The cultured cells were harvested using trypsin (Gibco), and then a cell suspension was prepare with PBS and stored on ice until injected into mice. In order to establish an allotransplanted tumor model, after identifying the location of the second mammary fat pad from the upper right of the ventral region of BALB/c female mice (8-week-old), 4T1 cell line prepared inside the mammary fat pad was injected at 4×10^4 cells/40 μl/head.\nA certain period of time after cell inoculation of the tumor grafts of the mice, the tumor volume was measured for animals with no abnormalities in the health condition of the animals, and the subjects were selected so that the average of each group reached less than 70-100 mm^3, and the selected animals were assigned as evenly as possible based on tumor volume and body weight, each group including 10 animals.\nDocetaxel was dissolved in 100% DMSO, and then the volume was adjusted with 5% of DMSO, 30% of PEG300, 5% of Tween 80, and 60% of distilled water for injection (DMSO PEG300: Tween 80: distilled water for injection=5%: 30%: 5%: 60% (v:v:v:v)) and prepared.\nThe Anti-PD-L1 antibody was prepared and administered using 1×PBS in consideration of dosage amount and volume. […]\nThe tumor volume before administration of each subject was set as the value measured at the time of grouping, and the anti-tumor efficacy was evaluated as compared with the vehicle control. […]"}, "[6]": {"details": "4T1, end of the test, 10 animals per group"}}}
{"compound": "Pertuzumab: Her2 inhibitor [reference compound]", "values": [{"measurement": "effect of killing cancer cells", "setting": "[1]", "value": "effect of killing cancer cells was not shown"}]}
{"compound": "CCN1CCN(Cc2ccc(Nc3ncc(F)c(-c4cc(F)c5nc(C)n(C(C)C)c5c4)n3)nc2)CC1", "note": "[Abemaciclib, reference compound]", "values": [{"measurement": "number of mice with tumor growth inhibition rate of 30% or more", "setting": "[2]", "value": 4, "unit": "mice"}, {"measurement": "number of mice with tumor growth inhibition rate of 50% or more", "setting": "[2]", "value": 1, "unit": "mice"}, {"measurement": "number of mice with tumor growth inhibition rate of 80% or more", "setting": "[2]", "value": 1, "unit": "mice"}]}
{"compound": "Cc1ccc2c(=O)c3cccc(CC(=O)O)c3oc2c1C", "note": "[DMXAA, reference compound]", "values": [{"measurement": "survival rate", "setting": "[3]", "value": 60, "unit": "%"}]}
{"compound": "CN(C)C(=O)c1cc2cnc(Nc3ccc(N4CCNCC4)cn3)nc2n1C1CCCC1", "note": "[Ribociclib, reference compound]", "values": [{"measurement": "effect of killing cancer cells", "setting": "[4]", "value": "excellent effect of killing cancer cells"}]}
{"compound": "CC(=O)O[C@@]12CO[C@@H]1C[C@H](O)[C@@]1(C)C(=O)[C@H](O)C3=C(C)[C@@H](OC(=O)[C@H](O)[C@@H](NC(=O)OC(C)(C)C)c4ccccc4)C[C@@](O)([C@@H](OC(=O)c4ccccc4)[C@H]21)C3(C)C", "note": "[Docetaxel]", "values": [{"measurement": "number of mice with tumor growth inhibition rate of 30% or more", "setting": "[5]; [6]", "value": 5, "unit": "mice"}, {"measurement": "number of mice with tumor growth inhibition rate of 50% or more", "setting": "[5]; [6]", "value": 1, "unit": "mice"}, {"measurement": "anticancer effect (tumor size) compared with the control", "setting": "[5]; day 14, Docetaxel 15 mg/kg, mGI-101 3 mg/kg, aPD-L1 10 mg/kg i.p. QW", "value": "statistically significant anticancer effect"}]}
